Reference: US20100160442A1, “FORMULATIONS FOR CANCER TREATMENT” (priority 2006, published 2010)
≈ marks a conversion by molar mass, not a printed value. Where two headings read alike, the source gives them in different places.

Experiment: Equilibrium solubility of 4-iodo-3-nitrobenzamide, overnight at 25° C., measured by HPLC
Format: physicochemical
Conditions: for solubility: thermodynamic from solid, read-out: Solubility
Method: Excess 4-iodo-3-nitrobenzamide (“BA”) was equilibrated overnight (>16 hr) at 25° C. in purified water, 0.01M HCl (pH2), 0.01M NaOH ([…]), and 0.9% NaCl. Following dilution, the solubility of the drug was measured by HPLC.
Excess 4-iodo-3-nitrobenzamide was equilibrated overnight (>16 hr) at 25° C. in solutions of purified water containing various concentrations of cyclodextrins including hydroxypropyl-β-cyclodextrin (Kleptose® from Roquette) (HPBCD), sulfobutyl ether-β-cyclodextrin (Captisol® from Cyclex) (SBEBCD), and Hyroxypropyl-γ-cyclodextrin (Cavamax W8® from Wacker) (HPGCD). Following dilution, the solubility of the drug was measured by HPLC.
Excess 4-iodo-3-nitrobenzamide was equilibrated overnight (>16 hr) at 25° C. in purified water containing various concentrations of the surfactants: polyethylene sorbitan monooleate (Polysorbate 80), polyoxyethylene sorbitan monolaurate (Polysorbate 20), Cremophor EL (BASF), Cremophor RH40 (BASF), Poloxamer 118, and Solutol HS-15 (BASF). Following dilution, the solubility of the drug was measured by HPLC.
Excess 4-iodo-3-nitrobenzamide was equilibrated overnight (>16 hr) at 25° C. in solutions of purified water containing various co-solvents including ethanol, glycofurol, glycerin formal, benzyl alcohol, N,N, dimethylacetamide (DMA), polyethylene glycol (PEG) 400, and propylene glycol. Following dilution, the solubility of the drug was measured by HPLC.
Excess 4-iodo-3-nitrobenzamide was equilibrated overnight (>16 hr) at 25° C. in solutions in purified water containing mixtures of solubilizers. Following dilution, the solubility of the drug was measured by HPLC.

solubility (0.01 M HCl, 25 °C, pH 2, simulated gastric fluid, 0.01 M HCl (pH 2), 25° C.): 179 µg/mL (≈ 0.613 mM)
solubility (0.01 M NaOH, 25 °C, pH 13, aqueous buffer, 0.01M NaOH (pH 13), 25° C.): 181 µg/mL (≈ 0.62 mM)
solubility (0.9% NaCl, 25 °C, saline or isotonic, 0.9% NaCl, 25° C.): 164 µg/mL (≈ 0.562 mM)
solubility (5% DMA (N,N-dimethylacetamide) in purified water, 25 °C, aqueous with cosolvent or surfactant or cyclodextrin, DMA 5%, 25° C.): 1390 µg/mL (≈ 4.76 mM)
Enhancement (5% DMA/5% EtOH/40% PEG 400): 44.0
solubility (5% DMA/5% EtOH/40% PEG 400 in purified water, 25 °C, aqueous with cosolvent or surfactant or cyclodextrin, 5% DMA/5% EtOH/40% PEG 400, 25° C.): 8010 µg/mL (≈ 27.4 mM)
Enhancement (5% DMA/25% Solutol HS-15): 45.7
solubility (5% DMA/25% Solutol HS-15 in purified water, 25 °C, aqueous with cosolvent or surfactant or cyclodextrin, 5% DMA/25% Solutol HS-15, 25° C.): 8320 µg/mL (≈ 28.5 mM)
Enhancement (5% DMA/40% PEG 400): 33.2
solubility (5% DMA/40% PEG 400 in purified water, 25 °C, aqueous with cosolvent or surfactant or cyclodextrin, 5% DMA/40% PEG 400, 25° C.): 6050 µg/mL (≈ 20.7 mM)
Enhancement (5% Polysorbate 20/5% ETOH): 12.1
solubility (5% Polysorbate 20/5% ethanol in purified water, 25 °C, aqueous with cosolvent or surfactant or cyclodextrin, 5% Polysorbate 20/5% ETOH, 25° C.): 2210 µg/mL (≈ 7.57 mM)
Enhancement (5% Polysorbate 20/5% glycofurol): 11.0
solubility (5% Polysorbate 20/5% glycofurol in purified water, 25 °C, aqueous with cosolvent or surfactant or cyclodextrin, 5% Polysorbate 20/5% glycofurol, 25° C.): 2000 µg/mL (≈ 6.85 mM)
Enhancement (5% Polysorbate 80/5% ETOH): 12.3
solubility (5% Polysorbate 80/5% ethanol in purified water, 25 °C, aqueous with cosolvent or surfactant or cyclodextrin, 5% Polysorbate 80/5% ETOH, 25° C.): 2230 µg/mL (≈ 7.64 mM)
Enhancement (5% Polysorbate 80/5% glycofurol): 13.1
solubility (5% Polysorbate 80/5% glycofurol in purified water, 25 °C, aqueous with cosolvent or surfactant or cyclodextrin, 5% Polysorbate 80/5% glycofurol, 25° C.): 2390 µg/mL (≈ 8.18 mM)
Enhancement (5% Polysorbate 80/10% EtOH/40% PEG 400): 6.7
solubility (5% glucose (5GW), 25 °C, saline or isotonic, 5% Glucose (5GW), 25° C.): 173 µg/mL (≈ 0.592 mM)
solubility (10% Cremophor EL in purified water, 25 °C, aqueous with cosolvent or surfactant or cyclodextrin, Cremophor EL 10%, 25° C.): 3500 µg/mL (≈ 12 mM)
solubility (10% Cremophor RH40 in purified water, 25 °C, aqueous with cosolvent or surfactant or cyclodextrin, Cremophor RH40 10%, 25° C.): 3370 µg/mL (≈ 11.5 mM)
Enhancement (10% EtOH/10% Polysorbate 80): 11.5
Enhancement (10% EtOH/40% PEG 400): 18.8
Enhancement (10% EtOH/40% PEG 400,/5% Benzyl Alcohol): 17.1
solubility (10% HPBCD in purified water, 25 °C, aqueous with cosolvent or surfactant or cyclodextrin, HPBCD 10% in purified water, 25° C.): 4860 µg/mL (≈ 16.6 mM)
solubility (10% Poloxamer 118 in purified water, 25 °C, aqueous with cosolvent or surfactant or cyclodextrin, Poloxamer 118 10%, 25° C.): 430 µg/mL (≈ 1.47 mM)
solubility (10% Polysorbate 20 in purified water, 25 °C, aqueous with cosolvent or surfactant or cyclodextrin, Polysorbate 20 10%, 25° C.): 3660 µg/mL (≈ 12.5 mM)
solubility (10% Polysorbate 80 in purified water, 25 °C, aqueous with cosolvent or surfactant or cyclodextrin, Polysorbate 80 10%, 25° C.): 3120 µg/mL (≈ 10.7 mM)
Enhancement (10% glycofurol, 40% PEG 400): 33.6
solubility (20% HPBCD in purified water, 25 °C, aqueous with cosolvent or surfactant or cyclodextrin, HPBCD 20% in purified water, 25° C.): 9960 µg/mL (≈ 34.1 mM)
solubility (25% HPBCD in purified water, 25 °C, aqueous with cosolvent or surfactant or cyclodextrin, HPBCD 25% in purified water, 25° C.): 11500 µg/mL (≈ 39.3 mM)
solubility (25% HPGCD in purified water, 25 °C, aqueous with cosolvent or surfactant or cyclodextrin, HPGCD 25% in purified water, 25° C.): 272 µg/mL (≈ 0.931 mM)
solubility (25% SBEBCD in purified water, 25 °C, aqueous with cosolvent or surfactant or cyclodextrin, SBEBCD 25% in purified water, 25° C.): 11000 µg/mL (≈ 37.8 mM)
solubility (25% Solutol HS 15 in purified water, 25 °C, aqueous with cosolvent or surfactant or cyclodextrin, Solutol HS 15 25%, 25° C.): 6550 µg/mL (≈ 22.4 mM)
solubility (30% Solutol HS 15 in purified water, 25 °C, aqueous with cosolvent or surfactant or cyclodextrin, Solutol HS 15 30%, 25° C.): 7460 µg/mL (≈ 25.5 mM)
solubility (40% HPBCD in purified water, 25 °C, aqueous with cosolvent or surfactant or cyclodextrin, HPBCD 40% in purified water, 25° C.): 12800 µg/mL (≈ 43.7 mM)
solubility (50% PEG 400 in purified water, 25 °C, aqueous with cosolvent or surfactant or cyclodextrin, PEG 400 50%, 25° C.): 7660 µg/mL (≈ 26.2 mM)
Enhancement (50% Polysorbate 20/50% EtOH): 89.6
solubility (50% Polysorbate 20/50% EtOH, 25 °C, organic solvent or mixture, 50% Polysorbate 20/50% EtOH, 25° C.): 16300 µg/mL (≈ 55.9 mM)
Enhancement (50% Polysorbate 80/50% EtOH): 102.2
solubility (50% Polysorbate 80/50% EtOH, 25 °C, organic solvent or mixture, 50% Polysorbate 80/50% EtOH, 25° C.): 18600 µg/mL (≈ 63.7 mM)
solubility (50% ethanol in purified water, 25 °C, aqueous with cosolvent or surfactant or cyclodextrin, Ethanol 50%, 25° C.): 5720 µg/mL (≈ 19.6 mM)
solubility (50% glycerin formal in purified water, 25 °C, aqueous with cosolvent or surfactant or cyclodextrin, Glycerin Formal 50%, 25° C.): 3450 µg/mL (≈ 11.8 mM)
solubility (50% glycofurol in purified water, 25 °C, aqueous with cosolvent or surfactant or cyclodextrin, Glycofurol 50%, 25° C.): 9850 µg/mL (≈ 33.7 mM)
solubility (50% propylene glycol in purified water, 25 °C, aqueous with cosolvent or surfactant or cyclodextrin, Propylene glycol 50%, 25° C.): 2240 µg/mL (≈ 7.67 mM)
solubility (100% DMA (N,N-dimethylacetamide), 25 °C, organic solvent or mixture, DMA 100%, 25° C.): 71500 µg/mL (≈ 245 mM)
solubility (100% Polysorbate 20, 25 °C, organic solvent or mixture, Polysorbate 20 100%, 25° C.): 10800 µg/mL (≈ 37.2 mM)
solubility (100% Polysorbate 80, 25 °C, organic solvent or mixture, Polysorbate 80 100%, 25° C.): 16900 µg/mL (≈ 57.8 mM)
solubility (100% benzyl alcohol, 25 °C, organic solvent or mixture, Benzyl alcohol 100%, 25° C.): 15500 µg/mL (≈ 53.1 mM)
solubility (100% ethanol, 25 °C, organic solvent or mixture, Ethanol 100%, 25° C.): 14100 µg/mL (≈ 48.1 mM)
SMILES: NC(=O)c1ccc(I)c([N+](=O)[O-])c1 [BA, 4-iodo-3-nitrobenzamide]
